Ends that are not written are not given here.
Legend:
peptide-pulsed T2 cells [1] = assay: IFN-gamma ELISPOT assay on CTLs induced with HLA-A*0201 restricted peptides; format: cell-based, human; details: against peptide-pulsed target cells compared with control without peptide, listed as IQGAP3-A02-10-1424
peptide-pulsed T2 cells [2] = assay: IFN-gamma ELISA assay on CTL lines (HLA-A*0201); format: cell-based, human; details: target cells pulsed with corresponding peptide vs without peptide

SLTAhSLLPL (SLTAHSLLPL; not fully specified (residue 5); printed as SLTAhSLLPL) [SEQ ID NO: 141]
IFN-gamma production of peptide-induced CTLs (ELISPOT) (peptide-pulsed T2 cells [1]): potent IFN-gamma production ability
IFN-gamma production of established CTL lines (ELISA) (peptide-pulsed T2 cells [2]): potent IFN-gamma production
